The source of these data is a melting point compilation (Tetko et al.).

Broadly, the melting point is the temperature of the solid-liquid transition. `CC(=O)C(=NNc1ccc(C(=O)O)cc1)C(C)=O` registered a melting point of 215 °C.
Regarding `Nc1ccc(C(=O)O)cc1[N+](=O)[O-]`, the melting point is 290 °C.
For the molecule `COc1cc2nnc(/C=C/C(C)=O)c(-c3ccc(C)o3)c2cc1OC`, the melting point is 209 to 210 °C.
`Oc1ccc(SC(F)(F)F)cc1` displayed a melting point of 59 °C.
As for `ClC(Cl)N(C(Cl)Cl)C(Cl)Cl`, the melting point lay in the range of 170 to 173 °C.
As to `CSc1ccc(C(F)(F)F)cc1NN`, the melting point lay in the range of 86 to 88 °C.
As to `CC1COC(Cn2cncn2)(c2ccc(Oc3ccc(Cl)cc3)cc2Cl)O1` (stereo not given), the melting point was determined as 76 °C.
In turn, `N=C(N)NC(=N)Nc1ccccc1` gave a melting point of 143 °C.
Next, `Cc1ccc2nc3c(ccc4ccccc43)c(C)c2c1`: 159 °C; `CC(C)SSC(C)C`: -69 °C; `CC(C)=C1C(=O)NN(c2ccccc2)C1=O`: 166 °C.
Next, `CN(C)C(C)(C)CO`: 19 °C; `O=C1OC(=Cc2ccccc2)c2ccccc21`: 100 °C.
`c1ccc(Cc2ccccc2)cc1` came in with a melting point of 25.2 °C.
For `NC(CCS(=O)(=O)O)C(=O)O` (racemic), the melting point came out at 273 °C.
Molecule `CC1CC(=O)c2cc(Cl)ccc2S1` (stereo not given) gave a melting point of 64 to 65 °C.
Molecule `COc1cc(F)ccc1C#N` registered a melting point of 76 °C.
`C=C1C(=O)C23C(OC(C)=O)CC4C5(C)CCCC4(C(OC)OC5)C2C(OC(C)=O)CC1C3OC(C)=O` (stereo not given): the melting point is 71 °C.
Molecule `CC(=O)Nc1ccc(C(=O)O)cc1[N+](=O)[O-]` registered a melting point of 226 °C.
On to `O=C(O)c1ccncc1C(=O)O`, for which the melting point came out at 262 °C.
Turning to `CC(=CCNc1ncnc2c1ncn2C1OC(CO)C(O)C1O)CO` (stereo not given), the melting point lay within 179 to 180 °C.
Next, `CC(C=CC=C(C)C=CC1=C(C)CCCC1(C)C)=CC=O`: 63 °C; `CCOC1Oc2ccc(OS(C)(=O)=O)cc2C1(C)C` (stereo not given): 71 °C; `CCOC(=O)CC(=O)CCl`: -8 °C.
With `N#C/C(=N/Nc1ccccc1)c1nc(-c2ccc(Cl)cc2)cs1`, the melting point is 178 °C.
`COC(=O)c1ccc(C(N)=O)cc1`: the melting point came out at 206 °C.
Take `O=[N+]([O-])c1ccc(-c2ccno2)cc1`: the melting point was 172 to 174 °C.
With `CN(C)CCOC1=Cc2ccccc2Sc2ccc(Cl)cc21`, the melting point was 90 °C.
Molecule `[N-]=[N+]=Nc1ccccc1-c1ccccc1` had a melting point of 49 °C.
As for `O=C(O)C=C(Br)C(=O)O`, the melting point came to 184 °C.
The molecule `CC1CCCCC1C` (stereo not given) displayed a melting point of -49.9 °C.
In the case of `FC(F)=C(Cl)C(F)(F)F`, the melting point is -130 °C.
`O=C(O)C=CC(=O)O` registered a melting point of 295 to 300 °C.
In the case of `O=C(O)C1CCC(C(F)(F)F)CC1` (stereo not given), the melting point was 63 to 65 °C.
For the molecule `Cc1nc2ccccc2c(C(=O)O)c1N`, the melting point was 204 to 205 °C.
With `O=S(=O)(O)CCCN1CCOCC1`, the melting point was found to be 284 °C.
In turn, `c1coc(C2CNCCN2)c1` (stereo not given) came in with a melting point of 87 °C.
`O=C(C(=O)c1ccco1)c1ccco1` gave a melting point of 164 °C.
To `NNc1cc(Cl)c(C(F)(F)F)cc1[N+](=O)[O-]` belongs 140 to 145 °C; to `O=C(c1ccc[nH]1)C(Cl)(Cl)Cl`, 72 to 74 °C; to `Cc1cccc(Nc2ccncc2S(=O)(=O)NC(=O)NC(C)C)c1`, 163 °C.
Take `CCCCCCCCC(O)C(O)CCCCCCCC(=O)O` (stereo not given): the melting point was determined as 90 °C.
In turn, `O=Cc1c(F)ccc(F)c1Cl` had a melting point of 47 °C.
On to `CCCCCCCCCCCC[N+]1=C(C=Cc2cc([N+](=O)[O-])cc([N+](=O)[O-])c2[O-])C(C)(C)c2ccccc21`, for which the melting point came out at 138 °C.
In turn, `Nc1c([N+](=O)[O-])sc2ccccc12` registered a melting point of 220 to 221 °C.
